Assay results reported in patent US11780830B2, “Triazolone derivatives or salts thereof and pharmaceutical compositions comprising the same” (YUHAN CORPORATION, priority 2018, dated 2023).
Structures can show the parent of a compound that is named as a salt.

How the values were obtained:
Assay type in all cases: biochemical
[1] = target: T1, recombinant human MAO-A (monoamine oxidase-A) (Homo sapiens, UniProt P21397); experiment: Activity on recombinant human MAO-A, method similar to the VAP-1 assay; conditions: substrate 0.5 mM tyramine; read-out: Inhibitory Activity (IC50, nM) MAO-A
T1 construct: purchased Sigma-Aldrich
T1 sequence (P21397 1-527): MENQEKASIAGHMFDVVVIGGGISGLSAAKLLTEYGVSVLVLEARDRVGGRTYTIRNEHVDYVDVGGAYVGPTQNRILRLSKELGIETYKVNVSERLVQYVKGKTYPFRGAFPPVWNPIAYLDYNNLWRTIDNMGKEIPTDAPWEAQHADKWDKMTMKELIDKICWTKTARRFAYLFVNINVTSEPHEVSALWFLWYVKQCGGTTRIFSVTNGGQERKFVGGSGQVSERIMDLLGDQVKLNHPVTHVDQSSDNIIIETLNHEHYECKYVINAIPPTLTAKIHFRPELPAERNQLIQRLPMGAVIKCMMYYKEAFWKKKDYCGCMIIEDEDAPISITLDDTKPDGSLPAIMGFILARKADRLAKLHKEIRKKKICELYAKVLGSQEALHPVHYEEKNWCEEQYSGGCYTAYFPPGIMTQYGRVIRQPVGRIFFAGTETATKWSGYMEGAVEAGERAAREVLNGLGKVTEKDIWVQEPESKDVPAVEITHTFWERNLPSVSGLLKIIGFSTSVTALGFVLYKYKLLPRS
In short: (§1)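 Fluorescence (544/590 nm) of resorufin formed from Amplex Red by HRP and enzyme-generated H2O2 was followed over 1-2 h. Substrates were 0.5 mM tyramine for MAO-A and 1 mM benzylamine for MAO-B; compounds were preincubated with enzyme for 30 min at 37° C. IC50 came from four-parameter logistic fitting of signal-rate inhibition.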

recombinant human VAP-1 = target: T2, recombinant human VAP-1 (Homo sapiens, UniProt Q16853); experiment: Activity on recombinant human VAP-1, HRP-coupled Amplex Red hydrogen peroxide assay; conditions: substrate 1 mM benzylamine; compound incubated with enzyme at 37° C. for 30 minutes; pH 7.4; read-out: Inhibitory Activity (IC50, nM) human VAP-1
T2 construct: purchased R&D systems
T2 sequence (Q16853 1-763): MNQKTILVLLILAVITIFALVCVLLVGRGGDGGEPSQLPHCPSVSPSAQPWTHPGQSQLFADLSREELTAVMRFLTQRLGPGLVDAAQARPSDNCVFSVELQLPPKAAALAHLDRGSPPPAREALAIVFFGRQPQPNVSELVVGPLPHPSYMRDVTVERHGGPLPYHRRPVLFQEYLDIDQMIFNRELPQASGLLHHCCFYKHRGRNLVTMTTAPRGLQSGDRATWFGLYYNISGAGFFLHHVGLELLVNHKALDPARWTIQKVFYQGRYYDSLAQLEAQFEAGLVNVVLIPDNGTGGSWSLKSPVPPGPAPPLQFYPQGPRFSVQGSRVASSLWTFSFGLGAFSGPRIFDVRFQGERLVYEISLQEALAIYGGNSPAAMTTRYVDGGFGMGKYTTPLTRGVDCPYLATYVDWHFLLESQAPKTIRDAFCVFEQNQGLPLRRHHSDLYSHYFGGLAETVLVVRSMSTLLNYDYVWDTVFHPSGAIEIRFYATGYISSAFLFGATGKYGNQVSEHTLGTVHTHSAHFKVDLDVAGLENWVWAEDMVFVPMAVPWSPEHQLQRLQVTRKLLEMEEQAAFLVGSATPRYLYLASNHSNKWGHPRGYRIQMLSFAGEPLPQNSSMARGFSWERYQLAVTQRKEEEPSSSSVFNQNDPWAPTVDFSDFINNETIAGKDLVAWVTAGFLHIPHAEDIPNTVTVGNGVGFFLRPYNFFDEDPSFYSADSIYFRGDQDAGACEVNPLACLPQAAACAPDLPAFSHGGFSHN
In short: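 Fluorescence of resorufin formed from H2O2 (ex 544 nm, em 590 nm) was tracked for 1-2 h after adding 1 mM benzylamine, 200 uM Amplex Red and 1 U/mL HRP to enzyme pretreated with compound for 30 min at 37 °C. IC50 values derive from four-variable logistic fits.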

[2] = target: T3, recombinant human MAO-B (monoamine oxidase-B) (Homo sapiens, UniProt P27338); experiment: Activity on recombinant human MAO-B, method similar to the VAP-1 assay; conditions: substrate 1 mM benzylamine; read-out: Inhibitory Activity (IC50, nM) MAO-B
T3 construct: purchased Sigma-Aldrich
T3 sequence (P27338 1-520): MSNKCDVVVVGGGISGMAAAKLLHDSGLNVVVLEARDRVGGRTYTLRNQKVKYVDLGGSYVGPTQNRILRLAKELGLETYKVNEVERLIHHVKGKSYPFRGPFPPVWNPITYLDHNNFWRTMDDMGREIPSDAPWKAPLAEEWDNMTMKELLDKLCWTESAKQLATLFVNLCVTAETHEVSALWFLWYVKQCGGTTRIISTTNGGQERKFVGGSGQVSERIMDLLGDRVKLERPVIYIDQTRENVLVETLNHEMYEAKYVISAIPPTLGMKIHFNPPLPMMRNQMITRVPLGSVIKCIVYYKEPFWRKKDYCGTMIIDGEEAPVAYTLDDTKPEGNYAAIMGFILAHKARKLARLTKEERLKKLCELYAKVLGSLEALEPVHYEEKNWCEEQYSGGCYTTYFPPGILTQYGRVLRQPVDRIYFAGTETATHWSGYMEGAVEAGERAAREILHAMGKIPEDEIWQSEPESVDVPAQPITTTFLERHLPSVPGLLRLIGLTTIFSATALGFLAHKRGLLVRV
In short: as §1

[3] = target: T4, recombinant human DAO (diamine oxidase) (Homo sapiens, UniProt P19801); experiment: Activity on recombinant human DAO, method similar to the VAP-1 assay; conditions: substrate 1 mM putrescine; read-out: Inhibitory Activity (IC50, nM) DAO
T4 construct: purchased R&D systems
T4 sequence (P19801 20-751): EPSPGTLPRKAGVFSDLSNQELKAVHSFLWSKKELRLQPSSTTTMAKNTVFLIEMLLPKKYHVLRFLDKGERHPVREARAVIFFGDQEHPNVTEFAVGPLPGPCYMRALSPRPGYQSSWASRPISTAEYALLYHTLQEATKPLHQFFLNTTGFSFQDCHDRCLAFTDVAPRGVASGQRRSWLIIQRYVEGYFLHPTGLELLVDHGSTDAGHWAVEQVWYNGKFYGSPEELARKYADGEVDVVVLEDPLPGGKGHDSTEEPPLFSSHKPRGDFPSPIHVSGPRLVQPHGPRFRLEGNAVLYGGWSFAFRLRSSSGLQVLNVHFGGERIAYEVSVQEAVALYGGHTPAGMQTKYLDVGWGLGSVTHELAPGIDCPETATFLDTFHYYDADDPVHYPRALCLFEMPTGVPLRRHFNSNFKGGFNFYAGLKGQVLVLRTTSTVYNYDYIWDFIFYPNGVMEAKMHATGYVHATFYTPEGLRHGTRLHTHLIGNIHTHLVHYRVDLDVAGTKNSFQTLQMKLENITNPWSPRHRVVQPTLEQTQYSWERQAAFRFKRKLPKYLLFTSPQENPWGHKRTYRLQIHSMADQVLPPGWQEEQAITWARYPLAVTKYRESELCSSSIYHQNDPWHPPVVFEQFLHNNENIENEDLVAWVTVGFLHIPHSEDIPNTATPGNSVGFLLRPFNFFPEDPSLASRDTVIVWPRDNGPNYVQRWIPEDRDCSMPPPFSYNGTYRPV
In short: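 Inhibition of recombinant human diamine oxidase (DAO, R&D systems) was assessed by the same approach as the VAP-1 assay, using 1 mM putrescine as substrate. Hydrogen peroxide formed was detected through an HRP-coupled Amplex Red reaction yielding fluorescent resorufin, read at 544 nm excitation and 590 nm emission. IC50 values came from four-parameter logistic fitting in GraphPad Prism.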

IC50 [1]	IC50 (recombinant human VAP-1)	IC50 [2]	IC50 [3]	SMILES
> 100000 nM	0.6 nM	5900 nM	530 nM	NC/C(=C\F)Cn1ncn(Cc2ccc(-c3cnc4c(c3)CCCN4)s2)c1=O [Example 111, 2-[(E)-2-(aminomethyl)-3-fluoro-allyl]-4-[[5-(5,6,7,8-tetrahydro-1,8-naphthyridin-3-yl)-2-thienyl]methyl]-1,2,4-triazol-3-one]
> 100000 nM	0.9 nM	950 nM	310 nM	CNc1ncc2cc(-c3ccc(Cn4cnn(C/C(=C/F)CN)c4=O)s3)ccc2n1 [Example 112, 2-[(2E)-2-(aminomethyl)-3-fluoroprop-2-en-1-yl]-4-(5-[2-(methylamino)quinazolin-6-yl]thiophen-2-ylmethyl)-2,4-dihydro-3H-1,2,4-triazol-3-one hydrochloride]
> 100000 nM	0.8 nM	160 nM	340 nM	NC/C(=C\F)Cn1ncn(Cc2ccc(-c3cccc4ncccc34)s2)c1=O [Example 113, 2-[(2E)-2-(aminomethyl)-3-fluoroprop-2-en-1-yl]-4-[5-(quinolin-5-yl)thiophen-2-yl]methyl-2,4-dihydro-3H-1,2,4-triazol-3-one hydrochloride]
143000 nM	0.3 nM	23 nM	110 nM	NC/C(=C\F)Cn1ncn(Cc2ccc(-c3cccc4cnccc34)s2)c1=O [Example 114, 2-[(2E)-2-(aminomethyl)-3-fluoroprop-2-en-1-yl]-4-[5-(isoquinolin-5-yl)thiophen-2-yl]methyl-2,4-dihydro-3H-1,2,4-triazol-3-one hydrochloride]
> 100000 nM	0.7 nM	120 nM	860 nM	NC/C(=C\F)Cn1ncn(Cc2ccc(-c3c[nH]c4ncccc34)s2)c1=O [Example 115, 2-[(2E)-2-(aminomethyl)-3-fluoroprop-2-en-1-yl]-4-[5-(1H-pyrrolo[2,3-b]pyridin-3-yl)thiophen-2-yl]methyl-2,4-dihydro-3H-1,2,4-triazol-3-one hydrochloride]

Continued, molecule first:

SMILES	IC50 [1]	IC50 (recombinant human VAP-1)	IC50 [2]	IC50 [3]
NC/C(=C\F)Cn1ncn(Cc2ccc(-c3ccc4c(c3)CCCO4)s2)c1=O [Example 109, 2-[(2E)-2-(aminomethyl)-3-fluoroprop-2-en-1-yl]-4-[5-(3,4-dihydro-2H-chromen-6-yl)thiophen-2-yl]methyl-2,4-dihydro-3H-1,2,4-triazol-3-one hydrochloride]	25300 nM	2.7 nM	104 nM	2540 nM
NC/C(=C\F)Cn1ncn(Cc2ccc(-c3ccc4c(c3)CCCN4)s2)c1=O [Example 110, 2-[(2E)-2-(aminomethyl)-3-fluoroprop-2-en-1-yl]-4-[5-(1,2,3,4-tetrahydroquinolin-6-yl)thiophen-2-yl]methyl-2,4-dihydro-3H-1,2,4-triazol-3-one hydrochloride]	32000 nM	0.9 nM	370 nM	220 nM
NC/C(=C\F)Cn1ncn(Cc2ccc(/C=C/c3ccc(O)cc3)s2)c1=O [Example 116, 2-[(2E)-2-(aminomethyl)-3-fluoroprop-2-en-1-yl]-4-(5-[(E)-2-(4-hydroxyphenyl)ethenyl]thiophen-2-ylmethyl)-2,4-dihydro-3H-1,2,4-triazol-3-one hydrochloride]	4400 nM	0.6 nM	180 nM	1700 nM
NC/C(=C\F)Cn1ncn(Cc2ccc(/C=C/c3ccc(F)cc3)s2)c1=O [Example 117, 2-[(2E)-2-(aminomethyl)-3-fluoroprop-2-en-1-yl]-4-(5-[(E)-2-(4-fluorophenyl)ethenyl]thiophen-2-ylmethyl)-2,4-dihydro-3H-1,2,4-triazol-3-one hydrochloride]	93000 nM	1.3 nM	270 nM	1200 nM
